Reference: patent US20240199605A1, “SMALL MOLECULAR INHIBITORS OF NF-kB INDUCING KINASE” (Janssen Pharmaceutica NV, priority 2019, published 2024)

Key:
[1] = tested on: p-IKKα levels in L363 (NIK translocated multiple myeloma) cells; experiment: Effect of compounds on p-IKKα levels in L363 cells (AlphaLISA SureFire Ultra); type: cell-based, human; conditions: Homo sapiens, L-363, 6 h, BAFF stimulated, MG132, 6 h, average of values, read-out: Assay 2 IC50
Procedure, shortened: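 Inhibition of p-IKKα (Ser176/180) read by AlphaLISA after 6 h, 37 °C compound exposure (11-point 1:3 series, 0.3% DMSO) of L363 cells pre-incubated overnight ± 250 ng/ml BAFF and plated ± BAFF ± 10 μM MG132. Normalised to BAFF/MG132/DMSO and unstimulated controls; IC50 by sigmoidal fitting, duplicates.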

[2] = target: recombinant human NF-kappaB-inducing kinase (NIK/MAP3K14) (Homo sapiens (Human), UniProt Q99558); experiment: Inhibition of auto-phosphorylation of recombinant human NIK/MAP3K14 (AlphaScreen); type: biochemical; conditions: NIK auto-phosphorylation, 5 μM ATP, 1 nM NIK, 2 h at 25° C.; average of values
Procedure, shortened: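 AlphaScreen read-out (anti-phospho-IKK Ser176/180 antibody, Protein A acceptor and glutathione donor beads) of NIK auto-phosphorylation. Reaction: 1 nM enzyme, 5 μM ATP, Tris pH 7.5 buffer with Mg2+ and vanadate, 2 h at 25° C., final DMSO 0.7%. IC50 came from a sigmoidal curve fit.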

recombinant human NF-kappaB-inducing kinase (NIK/MAP3K14), sequence (Q99558 whole entry): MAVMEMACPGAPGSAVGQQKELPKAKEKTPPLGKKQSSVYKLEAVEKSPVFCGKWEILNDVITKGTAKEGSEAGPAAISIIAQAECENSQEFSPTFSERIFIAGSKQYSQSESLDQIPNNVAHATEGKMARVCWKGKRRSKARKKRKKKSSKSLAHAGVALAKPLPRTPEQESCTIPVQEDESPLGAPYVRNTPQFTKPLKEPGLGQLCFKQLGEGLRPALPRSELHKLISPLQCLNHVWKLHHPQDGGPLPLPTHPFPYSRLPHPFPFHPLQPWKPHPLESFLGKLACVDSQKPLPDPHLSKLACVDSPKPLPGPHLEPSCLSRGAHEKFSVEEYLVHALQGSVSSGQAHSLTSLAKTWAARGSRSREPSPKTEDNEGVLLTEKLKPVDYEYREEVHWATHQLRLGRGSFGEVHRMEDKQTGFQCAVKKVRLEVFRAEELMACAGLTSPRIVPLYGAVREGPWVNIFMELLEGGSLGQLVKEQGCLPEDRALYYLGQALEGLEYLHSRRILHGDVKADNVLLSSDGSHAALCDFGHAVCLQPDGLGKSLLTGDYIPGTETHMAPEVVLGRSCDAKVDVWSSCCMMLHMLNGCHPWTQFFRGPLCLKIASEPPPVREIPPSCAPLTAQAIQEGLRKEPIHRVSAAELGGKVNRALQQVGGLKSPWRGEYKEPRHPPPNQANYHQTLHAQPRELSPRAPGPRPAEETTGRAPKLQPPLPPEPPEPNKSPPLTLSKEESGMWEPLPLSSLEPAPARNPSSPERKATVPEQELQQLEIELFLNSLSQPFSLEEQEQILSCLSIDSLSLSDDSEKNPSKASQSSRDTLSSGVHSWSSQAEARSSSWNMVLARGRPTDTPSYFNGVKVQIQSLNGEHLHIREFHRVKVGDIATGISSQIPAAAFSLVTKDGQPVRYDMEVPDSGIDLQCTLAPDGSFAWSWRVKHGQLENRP

IC50 [1] [nM]	IC50 [2] [nM]	SMILES
12	1.7	CN1CC[C@@](O)(C#Cc2cccc(-c3cc(OC(F)F)c4ncnc(N)c4n3)c2)C1=O [Example 299, (R)-3-[2-[3-[4-Amino-8-(difluoromethoxy)pyrido[3,2-d]pyrimidin-6-yl]phenyl]ethynyl]-3-hydroxy-1-methyl-pyrrolidin-2-one]
130	1.3	CN1CC[C@@](O)(C#Cc2cccc(N3CCc4ncnc(N)c4C3)c2)C1=O [Example 159, (R)-3-((3-(4-Amino-7,8-dihydropyrido[4,3-d]pyrimidin-6(5H)-yl)phenyl)ethynyl)-3-hydroxy-1-methylpyrrolidin-2-one]
> 5000	4880	CN1CC[C@@](C#Cc2cccc(-c3ccc4ncnc(N)c4n3)c2)(C(F)F)C1=O [Example 205, (S)-3-((3-(4-Aminopyrido[3,2-d]pyrimidin-6-yl)phenyl)ethynyl)-3-(difluoromethyl)-1-methylpyrrolidin-2-one]
> 5000	68	Cc1c(C#C[C@]2(O)CCN(C)C2=O)cccc1-c1ncc2ccnc(N)c2n1 [Example 41, (R)-3-((3-(8-Aminopyrido[3,4-d]pyrimidin-2-yl)-2-methylphenyl)ethynyl)-3-hydroxy-1-methylpyrrolidin-2-one]
6	≤ 0.5	[2H]C([2H])([2H])N1CCC(O)(C#Cc2cccc(-c3ncc4c(C)cnc(N)c4n3)c2)C1=O (stereo in doubt) [Example 87, (R)-3-[2-[3-(8-Amino-5-methyl-pyrido[3,4-d]pyrimidin-2-yl)phenyl]ethynyl]-3-hydroxy-1-(trideuteriomethyl)pyrrolidin-2-one]
240	7.8	CNc1ncnc2ccc(-c3cccc(C#C[C@]4(O)CCN(C)C4=O)c3)nc12 [Example 27, (R)-3-Hydroxy-1-methyl-3-((3-(4-(methylamino)pyrido[3,2-d]pyrimidin-6-yl)phenyl)ethynyl)pyrrolidin-2-one]
65	1.3	Cc1ccc(C#C[C@]2(O)CCN(C)C2=O)cc1N1CCc2ncnc(N)c2C1 [Example 220, (R)-3-((3-(4-Amino-7,8-dihydropyrido[4,3-d]pyrimidin-6(5H)-yl)-4-methylphenyl)ethynyl)-3-hydroxy-1-methylpyrrolidin-2-one]
12	1.7	Cc1nc(N)c2nc(-c3cccc(C#C[C@]4(O)CCN(C)C4=O)c3)cc(C)c2n1 [Example 285, (R)-3-((3-(4-Amino-2,8-dimethylpyrido[3,2-d]pyrimidin-6-yl)phenyl)ethynyl)-3-hydroxy-1-methylpyrrolidin-2-one]
2820	385	Cc1nc(N)c2nc(-c3cccc(C#C[C@@]4(O)C[C@@H](C)N(C)C4=O)c3)ccc2n1 [Example 267, (3S,5R)-3-((3-(4-Amino-2-methylpyrido[3,2-d]pyrimidin-6-yl)phenyl)ethynyl)-3-hydroxy-1,5-dimethylpyrrolidin-2-one]
17	≤ 0.5	Nc1nccc2ccc(-c3cccc(C#CC4(O)CCn5ccnc54)c3)nc12 (stereo in doubt) [Example 91, (R)-7-[2-[3-(8-Amino-1,7-naphthyridin-2-yl)phenyl]ethynyl]-5,6-dihydropyrrolo[1,2-a]imidazol-7-ol]
110	2.5	Cc1cc(C#C[C@]2(O)CCc3cccnc32)cc(-c2ncc3ccnc(N)c3n2)c1 [Example 52, (R)-7-[2-[3-(8-Aminopyrido[3,4-d]pyrimidin-2-yl)-5-methyl-phenyl]ethynyl]-5,6-dihydrocyclopenta[b]pyridin-7-ol]
0.7	≤ 0.5	Cc1cc(-c2cccc(C#C[C@]3(O)CCN(C)C3=O)c2)nc2c(N)ncnc12 [Example 28, (R)-3-((3-(4-Amino-8-methylpyrido[3,2-d]pyrimidin-6-yl)phenyl)ethynyl)-3-hydroxy-1-methylpyrrolidin-2-one]
52	≤ 0.5	Cc1cc([C@](C)(O)C#Cc2cccc(-c3ncc4ccnc(N)c4n3)c2)no1 [Example 34, (R)-4-[3-(8-Aminopyrido[3,4-d]pyrimidin-2-yl)phenyl]-2-(5-methylisoxazol-3-yl)but-3-yn-2-ol]
820	0.9	CN1CC[C@@](O)(C#Cc2cccc(-c3cc(C#N)c4ncnc(N)c4c3)c2)C1=O [Example 126, (R)-4-Amino-6-(3-((3-hydroxy-1-methyl-2-oxopyrrolidin-3-yl)ethynyl)phenyl)quinazoline-8-carbonitrile]
1130	21	C=CCN1CCC(O)(C#Cc2cccc(-c3ccc4nc(C)nc(N)c4n3)c2)C1=O (racemic) [Example 195, racemic-1-Allyl-3-((3-(4-amino-2-methylpyrido[3,2-d]pyrimidin-6-yl)phenyl)ethynyl)-3-hydroxypyrrolidin-2-one]
21	≤ 0.5	Cc1cnc(N)c2nc(-c3cccc(C#C[C@]4(O)CCN(C)C4=O)c3)ccc12 [Example 120, (R)-3-[2-[3-(8-Amino-5-methyl-1,7-naphthyridin-2-yl)phenyl]ethynyl]-3-hydroxy-1-methyl-pyrrolidin-2-one]

Further lines, the compound ahead of its results:

SMILES	IC50 [1] [nM]	IC50 [2] [nM]
CN1CC[C@@](O)(C#Cc2cccc(-c3ccc4ccnc(N5CCC5)c4n3)c2)C1=O [Example 233, (R)-3-((3-(8-(Azetidin-1-yl)-1,7-naphthyridin-2-yl)phenyl)ethynyl)-3-hydroxy-1-methylpyrrolidin-2-one]	> 5000	520
Cc1[nH]ncc1-c1cnc(N)c2nc(-c3cccc(C#C[C@]4(O)CCN(C)C4=O)c3)ncc12 [Example 127, (R)-3-[2-[3-[8-Amino-5-(5-methyl-1H-pyrazol-4-yl)pyrido[3,4-d]pyrimidin-2-yl]phenyl]ethynyl]-3-hydroxy-1-methyl-pyrrolidin-2-one]	12	≤ 0.5
CN1CC[C@@](O)(C#Cc2cccc(-c3ncc4c(Br)cnc(N)c4n3)c2)C1=O [Example 94, (R)-3-((3-(8-Amino-5-bromopyrido[3,4-d]pyrimidin-2-yl)phenyl)ethynyl)-3-hydroxy-1-methylpyrrolidin-2-one]	4.2	≤ 0.5
Cc1ccc(C#C[C@@]2(O)CCN(C)C2=O)cc1-c1ccc2ncnc(N)c2n1 [Example 260, (S)-3-((3-(4-Aminopyrido[3,2-d]pyrimidin-6-yl)-4-methylphenyl)ethynyl)-3-hydroxy-1-methylpyrrolidin-2-one]	2740	110
Cc1nc(N)c2nc(-c3cccc(C#C[C@](C)(O)c4ncc(C)s4)c3)ccc2n1 [Example 166, (S)-4-(3-(4-Amino-2-methylpyrido[3,2-d]pyrimidin-6-yl)phenyl)-2-(5-methylthiazol-2-yl)but-3-yn-2-ol]	> 5000	4700
Cc1csc([C@@](C)(O)C#Cc2cccc(-c3ccc4nc(C)nc(N)c4n3)c2)n1 [Example 181, (S)-4-(3-(4-Amino-2-methylpyrido[3,2-d]pyrimidin-6-yl)phenyl)-2-(4-methylthiazol-2-yl)but-3-yn-2-ol]	> 5000	> 5000
COc1ccc(C#C[C@]2(O)CCN(C)C2=O)cc1-c1nc2c(N)ncnc2s1 [Example 194, (R)-3-((3-(7-Aminothiazolo[5,4-d]pyrimidin-2-yl)-4-methoxyphenyl)ethynyl)-3-hydroxy-1-methylpyrrolidin-2-one]	8.3	1
CN1CC[C@@](O)(C#Cc2cccc(-c3ccc4nc(C5CC5)nc(N)c4n3)c2)C1=O [Example 175, (R)-3-((3-(4-Amino-2-cyclopropylpyrido[3,2-d]pyrimidin-6-yl)phenyl)ethynyl)-3-hydroxy-1-methylpyrrolidin-2-one]	230	2.4
Cc1nc(N)c2nc(-c3cccc(C#C[C@](C)(O)c4scnc4C)c3)ccc2n1 [Example 162, (S)-4-(3-(4-Amino-2-methylpyrido[3,2-d]pyrimidin-6-yl)phenyl)-2-(4-methylthiazol-5-yl)but-3-yn-2-ol]	> 5000	> 5000
CN1CC[C@@](O)(C#Cc2cccc(-c3ncc4c(-c5ccc(C(F)(F)F)nc5)cnc(N)c4n3)c2)C1=O [Example 147, (R)-3-[2-[3-[8-Amino-5-[6-(trifluoromethyl)-3-pyridyl]pyrido[3,4-d]pyrimidin-2-yl]phenyl]ethynyl]-3-hydroxy-1-methyl-pyrrolidin-2-one]	14	≤ 0.5
Cc1nnc([C@](C)(O)C#Cc2cccc(-c3ccc4ccnc(N)c4n3)c2)o1 [Example 88, (R)-4-[3-(8-Amino-1,7-naphthyridin-2-yl)phenyl]-2-(5-methyl-1,3,4-oxadiazol-2-yl)but-3-yn-2-ol]	400	4.7
Cc1nc(N)c2nc(-c3cc(C#C[C@]4(O)CCN(C)C4=O)ccc3C)sc2n1 [Example 182, (R)-3-[2-[3-(7-Amino-5-methyl-thiazolo[5,4-d]pyrimidin-2-yl)-4-methyl-phenyl]ethynyl]-3-hydroxy-1-methyl-pyrrolidin-2-one]	74	1.2
Cc1ccc(-c2nc3c(N)ncnc3s2)cc1C#C[C@]1(O)CCN(C)C1=O [Example 152, (R)-3-((5-(7-Aminothiazolo[5,4-d]pyrimidin-2-yl)-2-methylphenyl)ethynyl)-3-hydroxy-1-methylpyrrolidin-2-one]	200	3.8
